Data taken from article PMC7700664, “In Vitro and Ex Vivo Evaluation of Penetratin as a Non-invasive Permeation Enhancer in the Penetration of Salmon Calcitonin through TR146 Buccal Cells and Porcine Buccal Tissues” (Pharmaceuticals, 2020).
Values belong to the substance of their own block, whether it stands above or below them.

Key:
TR146 cells = assay: FITC-Penetratin and Alexa 647-sCT internalization in TR146 cells (flow cytometry); assay type: cell-based, human; conditions: 2 h, FACS
Experimental: For the internalization of FITC-Penetratin and Alexa 647-sCT, Alexa 647-sCT was synthesized. Alexa-647 and sCT were left at room temperature for 2 h to react, and the reaction was terminated using ammonium chloride. Purification of Alexa 647-sCT was done through dialysis.
TR146 cells were seeded in a 6-well culture plate and confocal dish at a density of 5.0 × 10^5 cells per well, and incubated for 24 h at 37 °C in 5 % CO2. To determine the concentration at which optimal intracellular uptake of Penetratin occurs, FITC-Penetratin at 2.5, 5, 10, 15, 20, 30, and 40 μM were added and incubated for 2 h.
To confirm the effect of Penetratin on intracellular uptake of sCT, 1.22, 6.10 and 12.2 μM of FITC-Penetratin were added to 40 μg of Alexa 647-sCT and incubated for 2 h at 37 °C. For the energy-independent internalization of Penetratin, 40 μg of Alexa 647-sCT and 12.2 μM of FITC-Penetratin were added and incubated for 2 h at 4 °C (energy-abolishing condition) and 37 °C (biological condition). After 2 h, imaging study with flow cytometry (BD FACSverse; Becton Dickinson, Heidelberg, Germany) and confocal laser scanning microscopy (LSM 800, Zeiss, Oberkochen, Germany) were performed.
TR146 cells were treated with a pre-determined amount of FITC-Penetratin and Alexa 647-sCT in a 6-well culture plate. […]

TR146 cell layer = assay: In vitro cell permeation study (Transwell); assay type: in vitro ADME, human; parameters: Kp (permeability coefficient): unit not given here; conditions: 40 μg sCT; for Kp (permeability coefficient) / ER (enhancement ratio): TR146 Transwell; for Kp (permeability coefficient) / Js (flux): apical to basolateral, HBSS-HEPES, 37 °C, mean ± SD n = 3; for Kp (permeability coefficient): ELISA, Kp = Js/Cd; for Js (flux): TR146 layer on 12-well Transwell, 28–30 days culture, sampling 0.5–8 h, sCT ELISA
Experimental: (§1) TR146 cell was seeded in a 12-well Transwell insert (Corning Inc., Corning, NY, USA) at a density of 5 × 10^4 cells per cm^2, and the medium was changed every 2 days for 28–30 days. The experiment was conducted from apical to basolateral and HBSS-HEPES buffer was used as media. Forty micrograms of sCT and 1.22, 6.10, and 12.2 μM of Penetratin were added to apical chamber and kept at 37 °C. 500 μL of sampling was obtained at 0.5, 1, 2, 4 and 8 h. Transepithelial electrical resistance (TEER) value was measured before and after the experiment. TEER was calculated with the following Equation (1), where Rinsert with cell, Rinsert without cell, and A were insert filter areas. The permeated amount of sCT was analyzed using an sCT ELISA kit (Phoenix Pharmaceuticals, Burlingame, CA, USA):TEER = (Rinsert with cell − Rinsert without cell) × A(1)
(§2) The flux (Js) was calculated using the following Equation (2), where t (h) was permeation time, A( cm^2 ) was permeation area, and Qr (ng) was the permeated amount of sCT, (2) Js=Qr/A·t(ng·cm^−2·h^−1) Kp was calculated with the following Equation (3), (3) Kp=Js/Cd([…]) where Js was the flux from the steady state (ng⋅cm^−2⋅h^−1) and Cd was the initial concentration in the donor chamber (ng⋅cm^−3). Finally, the enhancement ratio (ER) was obtained by dividing the Kp value of each formulation with that of the control.

[1] = no reference given for the value; cited from earlier work
Experimental: Penetratin is one of the most promising CPPs. Penetratin has positively charged amino acids such as lysine and arginine, and hydrophobic amino acids. Various cargoes were delivered by overcoming the barrier of the cell membrane, but the mechanism of CPPs and Cargo delivery through the cell membrane is still unclear. There is a possible explanation. At pH 7.4, where permeation and cell uptake experiments were conducted, sCT with a pI of 10.4 and penetratin have a positive charge, so there is no ionic interaction between penetratin and sCT. Penetratin and sCT form a hydrophobic interactio ...

TR146 cell layers = assay: TEER before and after permeability experiments; assay type: cell-based, human; conditions: for TEER Value After: after permeability experiment (8 h, 37 °C); for TEER Value After / TEER Value Before: TR146 cell layers on Transwell; for TEER Recovery: after vs before permeability experiment, TR146 cell layers; for TEER Value Before: before permeability experiment
Experimental: as §1

porcine buccal tissues = assay: Ex vivo buccal tissues permeation (Franz diffusion cell); assay type: in vitro ADME; conditions: 40 μg sCT; for Kp (permeability coefficient) / Js (flux): porcine buccal epithelium, 37 °C, mean ± SD n = 3; for Kp (permeability coefficient): Franz cell, pH 7.4 PBS, ELISA, Kp = Js/Cd; for Js (flux): Franz diffusion cell, area 2.0 cm^2, receptor 12.5 mL pH 7.4 PBS, 600 rpm, 8 h, sCT ELISA; for ER (enhancement ratio): porcine buccal tissue
Experimental: Buccal pre-treatment was performed according to the experimental method of Oh et al.. Briefly, porcine buccal tissues were immediately collected after pigs were sacrificed from a local slaughterhouse. Adipose and connective tissues were removed from buccal mucosa using surgical scissors. To obtain buccal epithelium, tissues were put in pH 7.4 PBS at 60 °C for 1 min. They were evaluated in the following in vitro permeation study.
Buccal permeability of sCT was evaluated using the Franz diffusion cell. The permeation area was 2.0 cm^2, and the volume of receptor media was 12.5 mL. The receptor was filled with pH 7.4 PBS and stirred at 600 rpm at 37 °C. The Franz diffusion cell was equilibrated for 30 min after mounting the buccal epithelium. Forty micrograms of sCT and of 1.22, 6.10 and 12.2 μM of Penetratin, of which molecular ratios were 1:0.1, 1:0.5 and 1:1 in donor part, respectively, were added to the Franz diffusion cell. Half of a milliliter of sample was obtained at different time intervals (1, 2, 4, and 8 h) from the receptor part and analyzed by a sCT ELISA kit (Phoenix Pharmaceuticals, Burlingame, CA, USA).
as §2

[2] = Penetratin 1.22 μM, Kp of formulation divided by Kp of control
[3] = Penetratin 6.10 μM, Kp of formulation divided by Kp of control

Substance: FITC-Penetratin: FITC labeled Penetratin, purchased from Peptron
internalization of FITC-Penetratin at 4 °C (TR146 cells; 12.2 μM FITC-Penetratin + 40 μg Alexa 647-sCT, 4 °C): confirmed | relative MFI of FITC-Penetratin (internalization) versus concentration (TR146 cells; FITC-Penetratin 2.5–40 μM, 37 °C, n = 3): increased steeply from 2.5 to 15 μM, but increased more gradually from 15 to 40 μM

Kp (permeability coefficient) (TR146 cell layer; Penetratin 0 μM (control)): 0.201 ± 0.007 | Js (flux) (TR146 cell layer; Penetratin 0 μM (control)): 16.091 ± 0.560 ng·cm^−2·h^−1 | Kp (permeability coefficient) (TR146 cell layer; Penetratin 1.22 μM): 0.275 ± 0.041 | ER (enhancement ratio) (TR146 cell layer; [2]): 1.4 | Js (flux) (TR146 cell layer; Penetratin 1.22 μM): 22.004 ± 3.247 ng·cm^−2·h^−1 | Kp (permeability coefficient) (TR146 cell layer; Penetratin 6.10 μM): 0.676 ± 0.063 | ER (enhancement ratio) (TR146 cell layer; [3]): 3.4 | Js (flux) (TR146 cell layer; Penetratin 6.10 μM): 54.075 ± 5.053 ng·cm^−2·h^−1 | Kp (permeability coefficient) (TR146 cell layer; Penetratin 12.2 μM): 1.115 ± 0.140 | ER (enhancement ratio) (TR146 cell layer; Penetratin 12.2 μM, Kp of formulation divided by Kp of control (text: fold increase of Js/flux)): 5.5 | Js (flux) (TR146 cell layer; Penetratin 12.2 μM): 89.190 ± 11.227 ng·cm^−2·h^−1 | TEER Value After (TR146 cell layers; 40 μg sCT + Penetratin 0 μM): 60.48 ± 5.88 Ω·cm^2 | TEER Value After (TR146 cell layers; 40 μg sCT + Penetratin 1.22 μM): 59.73 ± 2.94 Ω·cm^2 | TEER Value After (TR146 cell layers; 40 μg sCT + Penetratin 6.10 μM): 60.11 ± 6.00 Ω·cm^2 | TEER Value After (TR146 cell layers; 40 μg sCT + Penetratin 12.2 μM): 61.60 ± 6.62 Ω·cm^2 | TEER Recovery (TR146 cell layers; 40 μg sCT + Penetratin 0 μM): 96.31 ± 1.78% | TEER Recovery (TR146 cell layers; 40 μg sCT + Penetratin 1.22 μM): 94.21 ± 1.90% | TEER Recovery (TR146 cell layers; 40 μg sCT + Penetratin 6.10 μM): 98.17 ± 2.64% | TEER Recovery (TR146 cell layers; 40 μg sCT + Penetratin 12.2 μM): 96.52 ± 4.97% | TEER Value Before (TR146 cell layers; group 40 μg sCT + Penetratin 0 μM): 62.72 ± 5.20 Ω·cm^2 | TEER Value Before (TR146 cell layers; group 40 μg sCT + Penetratin 1.22 μM): 63.47 ± 3.99 Ω·cm^2 | TEER Value Before (TR146 cell layers; group 40 μg sCT + Penetratin 6.10 μM): 61.23 ± 6.00 Ω·cm^2 | TEER Value Before (TR146 cell layers; group 40 μg sCT + Penetratin 12.2 μM): 63.84 ± 6.42 Ω·cm^2 | Kp (permeability coefficient) (porcine buccal tissues; Penetratin 0 μM (control)): 0.005 ± 0.000 cm·h^−2 × 10^−3 | Js (flux) (porcine buccal tissues; Penetratin 0 μM (control)): 0.208 ± 0.018 ng·cm^−2·h^−1 | Js (flux) (porcine buccal tissues; Penetratin 1.22 μM (sCT:Penetratin 1:0.1)): 1.973 ± 0.660 ng·cm^−2·h^−1 | Kp (permeability coefficient) (porcine buccal tissues; Penetratin 1.22 μM): 0.049 ± 0.017 cm·h^−2 × 10^−3 | ER (enhancement ratio) (porcine buccal tissues; [2]): 9.5 | Js (flux) (porcine buccal tissues; Penetratin 6.10 μM (sCT:Penetratin 1:0.5)): 6.707 ± 0.832 ng·cm^−2·h^−1 | Kp (permeability coefficient) (porcine buccal tissues; Penetratin 6.10 μM): 0.168 ± 0.021 cm·h^−2 × 10^−3 | ER (enhancement ratio) (porcine buccal tissues; [3]): 32.2 | Js (flux) (porcine buccal tissues; Penetratin 12.2 μM (sCT:Penetratin 1:1)): 19.507 ± 1.794 ng·cm^−2·h^−1 | Kp (permeability coefficient) (porcine buccal tissues; Penetratin 12.2 μM): 0.488 ± 0.045 cm·h^−2 × 10^−3 | ER (enhancement ratio) (porcine buccal tissues; Penetratin 12.2 μM, Kp of formulation divided by Kp of control (text: fold increase of flux / permeated amount)): 93.7
Substance: Salmon calcitonin [sCT]
pI [1]: 10.4
